Test results from patent publication US20130266557A1, “METHODS FOR TREATMENT OF A SARCOMA USING AN EPIMETABOLIC SHIFTER (COENZYME Q10)” (priority 2009, published 2013).
“Also recorded” adds a separate entry of the source.

Test system: NCIES0808 cells
Test: Two-dimensional gel analysis with MS identification
Assay type: cell-based, human
Protocol: NCIES0808 cells were plated in T25 flasks in experimental conditions similar to those described in the PCR array section. At the end of the treatment time, cells were trypsinized as described in the PCR array section and washed twice in ice cold TBS and snap frozen in liquid nitrogen. Further processing for Western blots was carried out at UMass.
Before isoelectric focusing (IEF), samples were solubilized in 40 mM Tris, 7 M urea, 2 M thiourea, and 1% C7 zwitterionic detergent, reduced with tributylphosphine, and alkylated with 10 mM acrylamide for 90 min at room temperature. After the sample was run through a 10-kDa cutoff Amicon Ultra device with at least 3 volumes of the resuspension buffer, consisting of 7 M urea, 2 M thiourea, and 2% CHAPS to reduce the conductivity of the sample. One hundred micrograms of protein were subjected to IEF on 11-cm pH 3 to 10, pH 4 to 7 or pH 6 to 11 immobilized pH gradient strips (GE, Amersham, USA) to 100,000 volts hour. After IEF, immobilized pH gradient strips were equilibrated in 6 M urea, 2% SDS, 50 mM Tris-acetate buffer, pH 7.0, and 0.01% bromphenol blue and subjected to SDS-polyacrylamide gel electrophoresis on 8 to 16% Tris-HCl Precast Gel, 1 mm (Bio-Rad, USA). The gels were run in duplicate. They were fixed, stained in SYPRO Ruby, 80 mL/gel (Invitrogen, USA) and imaged on Fuji FLA-5100 laser scanner.
Analysis of all gel images was performed using Progenesis Discovery and Pro (Nonlinear Dynamics Inc., Newcastle upon Tyne, UK). After spot detection, matching, background subtraction, normalization, and filtering, data for SYPRO Ruby gel images was exported. […] Manual annotation of each statistically significant spots was performed to assure accurate detection.
Tryptic peptides extracted from respective gel plugs were dried down to a 10 ul volume and acidified with 1-2 ul of 1% TFA. Samples were loaded on an uC18 Zip Tip (Millipore, Corp) after pre-equilibration in 0.1% TFA. After washing with 2×10 ul aliquots of 0.1% TFA, samples were deposited directly onto the MALDI sample target using 1 ul of Matrix solution 15 mg/ml of 2,5 Dihydroxybenzoic Acid (MassPrep DHB, Waters Corp.) in 50:50 Acetonitrile: 0.1% TFA. Samples were allowed to air dry prior to insertion into the mass spectrometer. Analysis were performed on a Kratos Axima QIT (Shimadzu Instruments) matrix-assisted-laser desorption/ionization (MALDI) mass spectrometer. Peptides were analyzed in positive ion mode in mid mass range (700-3000 Da). The instrument was externally calibrated with Angiotensin II (1046.54), P14R (1533.86) and ACTH (18-39) 2465.20 Da. Precursors were selected based on signal intensity at a mass resolution width of 250 for CID fragmentation using Argon as the collision gas. Database searches were performed in house with Mascot (Matrix Sciences, Ltd.) using the Peptide Mass Fingerprint program for MS data and the MS/MS Ion Search program for CID data. All identifications were confirmed or established with CID (MS/MS) data.
NCIES0808 cells treated for 3, 6 and 24 hours were subjected to 2-D gel electrophoreses and were analyzed to identify protein-level changes relative to the control media samples. A comparative analysis of spots across multiple duplicated gels was performed, comparing the “control media sample” against all of the treated samples at both the 50 uM and 100 uM doses. The analysis included the identification of spot changes over the time course due to an increase, decrease, or post-translational modification.

[1] = 24 hours, 50 uM Q10, − = down, 1 = no change
[2] = 24 hours, 100 uM Q10, − = down, 1 = no change

In the case of Coenzyme Q10 [CoQ10], the “Spot 372, lamin B1: modulation vs control media” value [1] is reported as 1, the “Spot 387, SMT 3 suppressor of mif two 3 homolog 2: modulation vs control media” value [1] is reported as 1 and the “Spot 388, heat shock protein 27 kD: modulation vs control media” value [1] is reported as 1.1. For the same substance, the “Spot 396, hnRNP C1/C2: modulation vs control media” value [1] was −1.4, the “Spot 436, eukaryotc translation elongation factor 1 beta 2: modulation vs control media” value [1] was 1 and the “Spot 490, Similar to HSPC-300: modulation vs control media” value [1] was −1.2. The “Spot 506, heat shock protein 27 kD: modulation vs control media” value [1] was −1.2, the “Spot 511, eukaryotic translation elongation factor 1 delta: modulation vs control media” value [1] was 1 and the “Spot 524, eukaryotic translation elongation factor 1 delta: modulation vs control media” value [1] was 1. For the same substance, the “Spot 532, putative c-myc-responsive isoform 1: modulation vs control media” value [1] was 1, the “Spot 557, lamin B1: modulation vs control media” value [1] was 1 and the “Spot 575, ER lipid raft associated 2 isoform 1; beta actin: modulation vs control media” value [1] was 1.1. The “Spot 583, Dismutase Cu/Zn Superoxide: modulation vs control media” value [1] was 1.1, the “Spot 622, DNA directed DNA polymerase epislon 3; (canopy 2 homolog): modulation vs control media” value [1] was −1.1 and the “Spot 646, signal sequence receptor 1 delta: modulation vs control media” value [1] was 1. The “Spot 16, alpha 2-HS glycoprotein (Bos Taurus, cow): modulation vs control media” value [2] was 5.9, the “Spot 130, ribosomal proten P2; histone H2A: modulation vs control media” value [2] was −4.2 and the “Spot 180, beta actin: modulation vs control media” value [2] was 3. For the same substance, the “Spot 234, hnRNP C1/C2: modulation vs control media” value [2] was −2.6, the “Spot 244, heat shock protein 70 kD: modulation vs control media” value [2] was 1.7 and the “Spot 275, microtubule associated protein: modulation vs control media” value [2] was −1.8. For the same substance, the “Spot 311, beta tubulin: modulation vs control media” value [2] was 2.6, the “Spot 314, proteasome alpha 3: modulation vs control media” value [2] was −2.2 and the “Spot 363, ATP dependent helicase II: modulation vs control media” value [2] was 2.1. The “Spot 369, eukaryotic translation elongation factor 1 delta: modulation vs control media” value [2] was −2, the “Spot 372, lamin B1: modulation vs control media” value [2] was −2.1 and the “Spot 387, SMT 3 suppressor of mif two 3 homolog 2: modulation vs control media” value [2] was −1.95. The “Spot 388, heat shock protein 27 kD: modulation vs control media” value [2] was −1.7, the “Spot 396, hnRNP C1/C2: modulation vs control media” value [2] was −2 and the “Spot 436, eukaryotc translation elongation factor 1 beta 2: modulation vs control media” value [2] was −1.9. For the same substance, the “Spot 490, Similar to HSPC-300: modulation vs control media” value [2] was 1.5, the “Spot 506, heat shock protein 27 kD: modulation vs control media” value [2] was −1.9 and the “Spot 511, eukaryotic translation elongation factor 1 delta: modulation vs control media” value [2] was −1.6. The “Spot 524, eukaryotic translation elongation factor 1 delta: modulation vs control media” value [2] was −1.7, the “Spot 532, putative c-myc-responsive isoform 1: modulation vs control media” value [2] was 1.4 and the “Spot 557, lamin B1: modulation vs control media” value [2] was −1.6. For the same substance, the “Spot 575, ER lipid raft associated 2 isoform 1; beta actin: modulation vs control media” value [2] was 1.6, the “Spot 583, Dismutase Cu/Zn Superoxide: modulation vs control media” value [2] was −1.3 and the “Spot 622, DNA directed DNA polymerase epislon 3; (canopy 2 homolog): modulation vs control media” value [2] was −1.6. For the same substance, the “Spot 646, signal sequence receptor 1 delta: modulation vs control media” value [2] was 1.5, the “Expression of proteosome subunits PSMA3, PSMB3, PSMB4 and ubiquitin enzymes (ubiquilin)” value (Ewing Sarcoma ES0808 cell line treated with CoQ10) was “sustained increases” and the “Ku70 (ATP dependent helicase II) level” value (Ewing Sarcoma ES0808 cell lines treated with CoQ10) was “decrease”. The “Proteins with observed increase in expression (value = protein), discussion A” value (Ewing Sarcoma cell line treated with CoQ10) was “ribosomal proteins (RPLP2); also recorded: eukaryotic translation initiation factors (EIF3G, EIF4A2); also recorded: eukaryotic translation elongation factors (EEF1B2, EEF1D); also recorded: heat shock proteins (HSP27, HSP60, HSP70); also recorded: dyenin” and the “hnRNP C1/C2 expression” value (persisted up to 24 hours) was “down-regulation”.
